Measurements from patent US20150126507A1, “COMPOUNDS TO TREAT HEARING LOSS” (Fate Therapeutics, Inc., priority 2013, published 2015).
“Also recorded” adds a separate entry of the source.

Legend:
Format in all cases: cell-based
[1] = tested on: Atoh1 expression in P5 rat cochlear explants; assay: Cochlear explant assay, Atoh1 expression by qRT-PCR after tobramycin pretreatment; details: 1 mM tobramycin pretreatment, then compound vs DMSO
Description: FIG. 3. Postnatal day 5 rat cochleae were cultured for 2 days with 1 mM tobramycin and then 3 days with test compound or vehicle. Relative Atoh1 expression was measured by qRT-PCR. Results are expressed as average±S.D. for >7 individual cochleae per treatment group. * p<0.05, student's t-test.
The ten selected hits of Example 43 were assayed for the ability to induce Atoh1 expression in primary cultured cochlear explants from the neonatal rat. Postnatal day 5 (P5) rat cochlear explants were cultured with the ototoxic aminoglycoside antibiotic, tobramycin (1 mM), for 3 days prior to drug testing, as an in vitro model of drug-induced hearing loss. […] See, e.g., Ruedi, et al., Larynoscope 62:333-357 (1952). After the 3 day tobramycin pretreatment, the cochlear explants were cultured with the compounds of Example 43 or DMSO vehicle for an additional 2 days. Atoh1 expression levels, measured by qRT-PCR and normalized to ribosomal 18S expression, after hit compound treatments are shown in FIG. 3.

[2] = tested on: Atoh1 enhancer reporter in HEK293 cells; assay: Atoh1 reporter cell line, firefly luciferase normalized to renilla luciferase; details: Homo sapiens, HEK293, 48 h, Atoh1 reporter HEK293 cells, treated 2 days, dose response; read-out: ED50 (the source's name)
Description: FIG. 2. Dose response data for selected hits. Atoh1 reporter cells plated in 384 well plates were treated with test compounds or vehicle controls for 2 days. Firefly luciferase signal was measured and normalized to the renilla luciferase signal. Results from duplicate wells (circles and triangles) are expressed relative to normalized controls treated with DMSO.
A reporter cell line expressed in HEK293 cells in which Atoh1 enhancer elements flanked a minimal promoter driving firefly luciferase expression was created. Dose response data was generated in the reporter cell line. Atoh1 reporter cells plated in […] plates were treated with test compounds or vehicle controls for 2 days. Firefly luciferase signal was measured and normalized to the renilla luciferase signal.
For high-throughput screening, HEK293 cells were transduced with a lentiviral vector containing a concatamer of Atoh1 enhancer A and B elements, the Promega minP minimal promoter, firefly luciferase coding sequence and hygromycin selectable marker. After selection, the cells were transduced with a second lentiviral vector containing the EF1α constitutive promoter, Renilla luciferase and puromycin selectable marker. A clonal derivative expressing both transgenes was expanded and banked for screening.
A screening assay was done by plating 8000 cells/well in 384 well plates, and treating for 48 hours with 1 and 10 μM test compound in DMSO, vehicle control, or the GSK-3B inhibitor, BIO, as a positive control. Firefly and Renilla luciferase were measured sequentially using Dual-Glo (Promega) with an Envision multi-label plate reader (Perkin Elmer). Data were analyzed after normalizing firefly luciferase signals to Renilla luciferase signals. A primary screen of 50,000 diverse compounds identified 140 hits. […] 10 of these 41 hits were selected for further analysis
To confirm activity in the 10 selected hits, the test compounds were reassayed at 3.3×10^−9, 1×10^−8, 3.3×10^−8, 1×10^−7, 3.3×10^−7, 1×10^−6, 3.3×10^−6 and 1×10^−5 molar concentrations. […] Results from duplicate wells (circles and triangles) are expressed relative to normalized controls treated with DMSO.

[3] = tested on: Atoh1-GFP mouse cochlear explants; assay: Atoh1-GFP reporter mouse cochlear explants, confocal imaging and immunostaining; details: 40 μM, 3 days
Description: FIG. 4. Confocal images of E13 and P0 Atoh1-GFP mouse cochlear explants cultured for 3 days in 40 μM Compound 4 or DMSO and immunostained with antibodies against the supporting cell marker Sox2 (red), the hair cell marker MyosinVIIa (Myo7a, blue) and an anti-GFP antibody (green). […] Scale bars: A and B (50 μm); C and E (500 μm); D and F (25 μm).
To identify which cells expressed Atoh1 after hit compound treatment, we utilized cochlear explants from embryonic and postnatal Atoh1-GFP reporter mice. See, e.g., Lumpkin, et al., Gene Expression Patterns 3:389-395 (2003). Both embryonic and neonatal cochleae were used in order to identify if there was a temporal window in which tissue was more responsive to drug treatment.

Atoh1 reporter cell line = assay: Transcriptional profiling of Atoh1 reporter cell line by gene profiling microarray; details: 5 μM, 2 days, vs DMSO
Description: FIG. 5. An Atoh1 reporter cell line was treated with 5 μM Compound 4 or DMSO for 2 days. Gene expression was measured with a gene profiling microarray and plotted.
In an attempt to identify the signaling pathway by which Compound 4 induces Atoh1 expression, transcriptional profiling of the Atoh1 reporter cell line was compared after treatment with Compound 4 or DMSO control. The Atoh1 reporter cell line was treated with 5 μM or Compound 4 or DMSO for 2 days. […] An upregulation of endogenous Atoh1 with Compound 4 treatment in the reporter line was not observed, presumably because the overexpressed reporter sequence outcompeted the native Atoh1 regulatory domain. […] See, e.g., Martinez, et al., Toxicol. Sci. 82:429-435, (2004); Ito, et al., J. Immunotoxicol. 3(1):21-30 (2006); and Sun, et al., Nucleic Acids Res. 32(15):4512-4523 (2004). […] See, e.g., Qian, et al., J. Immunol. 166:2553-2561 (2001) and Kimura, et al., Biochem. Biophys. Res. Comm. 264:86-92 (1999).

[4] = P0 Atoh1-GFP mouse cochlear explants

## Cc1c(C(=O)Nc2nccs2)oc2ccccc12 [Compound 4]
[1]
  Atoh1 expression by qRT-PCR normalized to ribosomal 18S: largest stimulation of Atoh1 expression
[2]
  EC50: 1300 nM
[3]; Atoh1-GFP mouse cochlear explants
  averaged total length of the organ of Corti vs DMSO: no difference
[3]; E13 Atoh1-GFP mouse cochlear explants
  GFP+ hair cells in E13 explants vs DMSO control: greater number of GFP-positive hair cells; also recorded: increase in GFP+ hair cells
[3]; [4]
  GFP+ hair cells with Sox2+ nuclei in P0 explants: numerous ectopic GFP+ hair cells with weak nuclear Sox2 expression; also recorded: numerous GFP+/MyosinVIIa+ cells were observed to have Sox2+ nuclei
  GFP-positive hair cell domain in P0 explants vs DMSO control: expansion in the GFP+ hair cell domain; also recorded: expansion of the GFP-positive hair cell domain
Atoh1 reporter cell line
  upregulation of annotated genes (EGR1, SCIN, CYP1A1, CYP1B1, TACT, MAFF): greater than 3 fold
  upregulation of endogenous Atoh1: not observed
